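Grown in 96-well plates, cells were treated for 48 hours with each compound at five concentrations. Insufficient inhibition: endpoint recorded as highest concentration tested. TGI denotes the concentration required for complete inhibition of growth.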
Experiments:
Test in all cases: NCI anticancer screen, dose series, 48 h
[1] = system: HT29 colon
[2] = system: NCI-H23 lung
[3] = system: KM12 colon
[4] = system: HOP-92 NSCLC
[5] = system: SK-MEL-2 melanoma
[6] = system: DU-145 prostate
[7] = system: SR leukemia
[8] = system: CCRF-CEM leukemia
[9] = system: U251 CNS
[10] = system: 786-0 renal
[11] = system: RPMI-8226 leukemia
[12] = system: NCI/ADR-RES ovarian
[13] = system: MALME-3M melanoma
[14] = system: HL-60(TB) leukemia
[15] = system: NCI-H226 lung
[16] = system: SNB-19 CNS
[17] = system: SN12C renal
[18] = system: BT-549 breast
[19] = system: SK-MEL-28 melanoma
[20] = system: T-47D breast
[21] = system: CAKI-1 renal
[22] = system: HS 578T breast
[23] = system: MDA-MB-231 breast
[24] = system: OVCAR-5 ovarian
[25] = system: TK-10 renal
[26] = system: UACC-257 melanoma
[27] = system: UACC-62 melanoma
[28] = system: OVCAR-3 ovarian
[29] = system: HCC-2998 colon
[30] = system: HCT-15 colon
[31] = system: SK-MEL-5 melanoma
[32] = system: SW-620 colon
[33] = system: RXF 393 renal
[34] = system: K-562 leukemia
[35] = system: EKVX NSCLC
[36] = system: SK-OV-3 ovarian
[37] = system: OVCAR-4 ovarian
[38] = system: HOP-62 NSCLC
[39] = system: A498 renal
[40] = system: HCT-116 colon
[41] = system: ACHN renal
[42] = system: MDA-N
[43] = system: SF-295 CNS
[44] = system: SF-539 CNS
[45] = system: MDA-MB-435
[46] = system: NCI-H522 lung
[47] = system: OVCAR-8 ovarian
[48] = system: NCI-H460 lung
[49] = system: PC-3 prostate
[50] = system: SF-268 CNS
[51] = system: COLO 205 colon
[52] = system: SNB-75 CNS
[53] = system: UO-31 renal
[54] = system: M14 melanoma
[55] = system: MOLT-4 leukemia
[56] = system: MCF7 breast
[57] = system: A549 NSCLC
[58] = system: LOX IMVI melanoma
[59] = system: IGROV1 ovarian

Compound: OC(C1=C/C(=C\c2ccncc2)c2ccccc21)c1ccncc1 (stereo not given)
- TGI [1]: 32.4 µM
- TGI [2]: 39.2 µM
- TGI [3]: 35.1 µM
- TGI [4]: 49.7 µM
- TGI [5]: 33.8 µM
- TGI [6]: 62.2 µM
- TGI [7]: 29.1 µM
- TGI [8]: 45.9 µM
- TGI [9]: 31.4 µM
- TGI [10]: 30.3 µM
- TGI [11]: 22.4 µM
- TGI [12]: > 75 µM
- TGI [13]: 38.3 µM
- TGI [14]: 15.7 µM
- TGI [15]: 31.1 µM
- TGI [16]: 69.2 µM
- TGI [17]: 35.4 µM
- TGI [18]: 57.9 µM
- TGI [19]: 34.6 µM
- TGI [20]: 33.7 µM
- TGI [21]: > 49.5 µM
- TGI [22]: > 54.1 µM
- TGI [23]: 23.4 µM
- TGI [24]: 37.4 µM
- TGI [25]: 32.3 µM
- TGI [26]: 19.1 µM
- TGI [27]: 24 µM
- TGI [28]: 31.7 µM
- TGI [29]: 22.3 µM
- TGI [30]: > 63.5 µM
- TGI [31]: 13 µM
- TGI [32]: > 94.3 µM
- TGI [33]: 30.6 µM
- TGI [34]: 28.1 µM
- TGI [35]: 41.5 µM
- TGI [36]: 31.8 µM
- TGI [37]: > 57.6 µM
- TGI [38]: 31.6 µM
- TGI [39]: 27.3 µM
- TGI [40]: 28.2 µM
- TGI [41]: 53.4 µM
- TGI [42]: 30.4 µM
- TGI [43]: 31.4 µM
- TGI [44]: 32 µM
- TGI [45]: 27.9 µM
- TGI [46]: 31.1 µM
- TGI [47]: > 100 µM
- TGI [48]: 28.2 µM
- TGI [49]: 32.9 µM
- TGI [50]: 57.3 µM
- TGI [51]: 29.3 µM
- TGI [52]: 24 µM
- TGI [53]: 28.2 µM
- TGI [54]: 27.8 µM
- TGI [55]: 23.9 µM
- TGI [56]: 30.7 µM
- TGI [57]: 41.8 µM
- TGI [58]: 32 µM
- TGI [59]: 52.4 µM

Compound: CC(/C=N/N(C)C1=NCCCCN1)=N/N(C)C1=NCCCCN1
- TGI [1]: > 100 µM
- TGI [2]: > 100 µM
- TGI [3]: > 100 µM
- TGI [4]: > 100 µM
- TGI [5]: > 100 µM
- TGI [6]: > 100 µM
- TGI [7]: > 100 µM
- TGI [8]: > 100 µM
- TGI [9]: > 100 µM
- TGI [10]: > 100 µM
- TGI [11]: > 100 µM
- TGI [12]: > 100 µM
- TGI [13]: > 100 µM
- TGI [14]: > 100 µM
- TGI [15]: > 100 µM
- TGI [16]: > 100 µM
- TGI [17]: > 100 µM
- TGI [18]: > 100 µM
- TGI [19]: > 100 µM
- TGI [20]: > 100 µM
- TGI [21]: > 100 µM
- TGI [22]: > 100 µM
- TGI [23]: > 100 µM
- TGI [24]: > 100 µM
- TGI [25]: > 100 µM
- TGI [26]: > 100 µM
- TGI [27]: > 100 µM
- TGI [28]: > 100 µM
- TGI [29]: > 100 µM
- TGI [30]: > 100 µM
- TGI [31]: > 100 µM
- TGI [32]: > 100 µM
- TGI [33]: > 100 µM
- TGI [34]: > 100 µM
- TGI [35]: > 100 µM
- TGI [36]: > 100 µM
- TGI [37]: > 100 µM
- TGI [38]: > 100 µM
- TGI [39]: > 100 µM
- TGI [40]: > 100 µM
- TGI [41]: > 100 µM
- TGI [42]: > 100 µM
- TGI [43]: > 100 µM
- TGI [44]: > 100 µM
- TGI [45]: > 100 µM
- TGI [46]: > 100 µM
- TGI [47]: > 100 µM
- TGI [48]: > 100 µM
- TGI [49]: > 100 µM
- TGI [50]: > 100 µM
- TGI [51]: > 100 µM
- TGI [52]: > 100 µM
- TGI [53]: > 100 µM
- TGI [55]: > 100 µM
- TGI [56]: > 100 µM
- TGI [57]: > 100 µM
- TGI [58]: > 100 µM
- TGI [59]: > 100 µM

Compound: C=C(Cl)COC(=O)Nc1cccc(Cl)c1
- TGI [1]: > 100 µM
- TGI [2]: 90.2 µM
- TGI [3]: > 100 µM
- TGI [4]: 64.9 µM
- TGI [5]: 58.5 µM
- TGI [6]: > 100 µM
- TGI [7]: > 100 µM
- TGI [8]: > 100 µM
- TGI [9]: > 100 µM
- TGI [10]: 92.2 µM
- TGI [11]: > 100 µM
- TGI [12]: 99.7 µM
- TGI [14]: 94.6 µM
- TGI [15]: > 100 µM
- TGI [16]: > 100 µM
- TGI [17]: > 100 µM
- TGI [18]: 87.2 µM
- TGI [19]: > 100 µM
- TGI [20]: > 100 µM
- TGI [21]: > 100 µM
- TGI [22]: > 100 µM
- TGI [23]: > 100 µM
- TGI [24]: > 100 µM
- TGI [25]: > 100 µM
- TGI [26]: > 100 µM
- TGI [27]: 59.5 µM
- TGI [28]: > 100 µM
- TGI [29]: > 100 µM
- TGI [30]: > 100 µM
- TGI [31]: 39.6 µM
- TGI [32]: > 100 µM
- TGI [33]: 77.6 µM
- TGI [34]: > 100 µM
- TGI [35]: 59.1 µM
- TGI [36]: > 100 µM
- TGI [37]: > 100 µM
- TGI [38]: > 100 µM
- TGI [39]: 90.4 µM
- TGI [40]: 78.7 µM
- TGI [41]: > 100 µM
- TGI [42]: > 100 µM
- TGI [43]: 96.2 µM
- TGI [44]: > 100 µM
- TGI [45]: > 100 µM
- TGI [46]: 83.6 µM
- TGI [47]: > 100 µM
- TGI [48]: > 100 µM
- TGI [49]: 84.6 µM
- TGI [50]: > 100 µM
- TGI [51]: > 100 µM
- TGI [52]: 83.7 µM
- TGI [53]: 44.9 µM
- TGI [54]: > 100 µM
- TGI [55]: > 100 µM
- TGI [56]: > 100 µM
- TGI [57]: > 100 µM
- TGI [58]: > 100 µM
- TGI [59]: > 100 µM
